In patent EP4603105A1, “PHARMACEUTICAL COMPOSITION CONTAINING CYCLIC COMPOUND HAVING SELECTIVE KRAS INHIBITORY EFFECT AGAINST HRAS AND NRAS” (CHUGAI SEIYAKU KABUSHIKI KAISHA, priority 2022, dated 2024):
pIC50: −log10 of the molar value. *1 amine or outer side, *2 acyl side, *3 side chain or, on linkers, in order; H or OH if unused. Where a SMILES comes first, the peptide text is derived from it. Bridges are numbered along the chain shown (N, C = ends). [ ]: non-standard residue; d: D form. The star is where a group is joined. hPhe(3,5-F2-4-CF3) = N[C@@H](CCc1cc(F)c(C(F)(F)F)c(F)c1)C(=O)O; hPhe(3-Cl-4-CF3) = N[C@@H](CCc1ccc(C(F)(F)F)c(Cl)c1)C(=O)O; X33 = O=C([C@H](Cc1ccc(C(F)(F)F)cc1)N(CC1CC1)[*:1])[*:2]; NPrPhe(4-CF3) = CCCN[C@@H](Cc1ccc(C(F)(F)F)cc1)C(=O)O; NEtAsp = CCN([C@@H](CC(=O)[*:3])C(=O)[*:2])[*:1]; X26 = CCCN([C@@H](Cc1ccc(F)cc1)C(=O)[*:2])[*:1]; NMeGly(cPent) = CN[C@H](C(=O)O)C1CCCC1; Pro(4,4-Me2) = CC1(C)CN[C@H](C(=O)O)C1; Pro(4S-Me) = C[C@@H]1CN[C@H](C(=O)O)C1; NMeD = CN[C@@H](CC(=O)O)C(=O)O; NMeL = CN[C@@H](CC(C)C)C(=O)O; Morpholide = C1CN(*)CCO1; NMeA = CN[C@@H](C)C(=O)O; Ac5c = NC1(C(=O)O)CCCC1; Aze = O=C(O)[C@@H]1CCN1; NEtG = CCNCC(=O)O; Sar = CNCC(=O)O

Legend:
[1] = tested on: human lung cancer strain NCI-H441; format: cell-based
Outline: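 Proliferation was scored by […] measured after the reagent was added to cultures kept at 37°C in 5% carbon dioxide.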

HRAS wild-type protein = HRAS wild-type protein (Homo sapiens, UniProt P01112); experiment: Binding to HRAS by surface plasmon resonance (SPR), KD and KD ratio to KRAS
Outline: (§1)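 Compound binding is evaluated by SPR single-cycle kinetics, with concentrations added intermittently from low to high for 75 s each. Target surfaces carry GDP-loaded biotinylated Avi-RAS at about 100–300 RU, regenerated after each cycle; temperature 30°C. A 1:1 binding model gives KD.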

[2] = molecular target: GDP-bound NRAS wild-type protein (Homo sapiens, UniProt P01111); experiment: Binding to NRAS by surface plasmon resonance (SPR), KD and KD ratio to KRAS
Outline: as §1

[3] = ratio of KD for HRAS wild-type protein to KD for KRAS
[4] = ratio of KD for GDP-bound NRAS wild-type protein to KD for KRAS
[5] = ratio of the KD value with respect to HRAS wild-type protein to the KD value with respect to KRAS
[6] = ratio of the KD value with respect to GDP-bound NRAS wild-type protein to the KD value with respect to KRAS

Sequence of GDP-bound NRAS wild-type protein (P01111 whole entry): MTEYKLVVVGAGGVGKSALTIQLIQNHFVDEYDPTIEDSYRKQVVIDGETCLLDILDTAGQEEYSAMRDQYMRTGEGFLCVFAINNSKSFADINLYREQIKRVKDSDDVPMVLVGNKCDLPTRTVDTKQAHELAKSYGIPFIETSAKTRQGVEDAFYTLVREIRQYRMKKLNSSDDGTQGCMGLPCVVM
Sequence of HRAS wild-type protein (P01112 whole entry): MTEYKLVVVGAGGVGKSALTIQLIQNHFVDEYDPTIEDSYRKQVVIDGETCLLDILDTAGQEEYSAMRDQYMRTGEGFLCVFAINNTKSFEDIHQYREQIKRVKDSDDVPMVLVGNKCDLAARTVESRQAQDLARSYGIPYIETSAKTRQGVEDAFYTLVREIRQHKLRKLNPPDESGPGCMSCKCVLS

Compound	pIC50 [1]	HRAS /KRAS (HRAS wild-type protein; [3])	NRAS /KRAS [2, 4]	HRAS /KRAS (HRAS wild-type protein; [5])	NRAS /KRAS [2, 6]
CCCN1C(=O)[C@@H]2CCN2C(=O)[C@H](C)N(C)C(=O)[C@H]([C@@H](C)CC)NC(=O)[C@H](CC(C)C)N(C)C(=O)C[C@@H](C(=O)N2CCOCC2)N(C)C(=O)[C@H](C2CCCC2)N(C)C(=O)C2(CCCC2)NC(=O)[C@@H]2CCCN2C(=O)[C@H](CCc2ccc(C(F)(F)F)c(Cl)c2)NC(=O)CN(C)C(=O)[C@@H]1Cc1ccc(F)cc1 [PP0219] ([NMeL]I[NMeA][Aze][X26][Sar][hPhe(3-Cl-4-CF3)]P[Ac5c][NMeGly(cPent)][NMeD]-Morpholide; lactam N-11)	8.66	B (a compound having 3 or more and less than 10 is denoted as B)	C (A compound having a KD ratio of 0.1 or more and less than 3 is denoted as C)	–	–
CCC[C@H]1C(=O)N[C@@H]([C@@H](C)CC)C(=O)N(C)CC(=O)N(C)[C@H]2C/C=C\CCN(C2=O)[C@@H](Cc2ccc(C(F)(F)F)cc2)C(=O)N(C)CC(=O)N[C@@H](CCc2ccc(C(F)(F)F)c(OC)c2)C(=O)N2C[C@H](OCC)C[C@H]2C(=O)N(C)C2(CCC2)C(=O)N(C)[C@@H](C2CCCC2)C(=O)N(C)[C@H](C(=O)N2CCCC2)CC(=O)N1C [PP3105]	8.60	A (a compound having 10 or more and less than 20 is denoted as A)	AA (a compound having 20 or more is denoted as AA)	–	–
CCCN1C(=O)CN(C)C(=O)CNC(=O)[C@H]([C@@H](C)CC)NC(=O)[C@H](CC(C)C)N(C)C(=O)C[C@@H](C(=O)N2CCOCC2)N(CC)C(=O)[C@H](C2CCCC2)N(C)C(=O)C2(CCCC2)NC(=O)[C@@H]2CCCN2C(=O)[C@H](CCc2ccc(C(F)(F)F)c(Cl)c2)NC(=O)CN(C)C(=O)[C@@H]1Cc1ccc(C(F)(F)F)cc1 [PP1970] ([NMeL]IG[Sar][NPrPhe(4-CF3)][Sar][hPhe(3-Cl-4-CF3)]P[Ac5c][NMeGly(cPent)][NEtAsp]-Morpholide; lactam N-11)	7.77	–	–	B (a compound having 3 or more and less than 10 is denoted as B)	B (a compound having 3 or more and less than 10 is denoted as B)
CCCN1C(=O)CN(C)C(=O)CNC(=O)[C@H]([C@@H](C)CC)NC(=O)[C@H](CC(C)C)N(C)C(=O)C[C@@H](C(=O)N2CCOCC2)N(C)C(=O)[C@H](C2CCCC2)N(C)C(=O)C2(CCCC2)NC(=O)[C@@H]2C[C@H](C)CN2C(=O)[C@H](CCc2ccc(C(F)(F)F)c(Cl)c2)NC(=O)CN(C)C(=O)[C@@H]1Cc1ccc(C(F)(F)F)cc1 [PP0449] ([NMeL]IG[Sar][NPrPhe(4-CF3)][Sar][hPhe(3-Cl-4-CF3)][Pro(4S-Me)][Ac5c][NMeGly(cPent)][NMeD]-Morpholide; lactam N-11)	8.04	–	–	C (A compound having a KD ratio of 0.1 or more and less than 3 is denoted as C)	C (A compound having a KD ratio of 0.1 or more and less than 3 is denoted as C)
CCO[C@@H]1C[C@H]2C(=O)NC3(CCC3)C(=O)N(C)[C@@H](C3CCCC3)C(=O)N(C)[C@H](C(=O)N3CCOCC3)CC(=O)N(C)[C@@H](COC)C(=O)N[C@@H]([C@@H](C)CC)C(=O)NCC(=O)N(C)[C@H]3CCCCCN(C3=O)[C@@H](Cc3ccc(C(F)(F)F)cc3)C(=O)N(C)CC(=O)N[C@@H](CCc3cc(F)c(C(F)(F)F)c(F)c3)C(=O)N2C1 [PP0858]	7.28	B (a compound having 3 or more and less than 10 is denoted as B)	B (a compound having 3 or more and less than 10 is denoted as B)	–	–
CCCO[C@@H]1CCN2C(=O)[C@H](CCc3cc(F)c(C(F)(F)F)c(F)c3)NC(=O)CN(C)C(=O)[C@H](Cc3ccc(C(F)(F)F)cc3)N3CCCC[C@@H](C3=O)N(C)C(=O)CN(C)C(=O)[C@H]([C@@H](C)CC)NC(=O)[C@H](CC(C)C)N(C)C(=O)C[C@@H](C(=O)N3CCOCC3)N(C)C(=O)[C@H](C3CCCC3)N(C)C(=O)C3(CCC3)NC(=O)[C@H]12 [PP1080]	7.41	B (a compound having 3 or more and less than 10 is denoted as B)	B (a compound having 3 or more and less than 10 is denoted as B)	–	–
C#CC[C@H]1C(=O)N[C@@H]([C@@H](C)CC)C(=O)N(C)CC(=O)N(C)[C@H]2C/C=C\CCN(C2=O)[C@@H](Cc2ccc(C(F)(F)F)cc2)C(=O)N(C)CC(=O)N[C@@H](CCc2cc(F)c(C(F)(F)F)c(F)c2)C(=O)N2C[C@@H](C)C[C@H]2C(=O)NC2(CC(C)(C)C2)C(=O)N(C)[C@@H](C2CCCC2)C(=O)N(C)[C@H](C(=O)N(C)CC)CC(=O)N1C [PP2075]	7.93	–	–	A (a compound having 10 or more and less than 20 is denoted as A)	A (a compound having 10 or more and less than 20 is denoted as A)
CCO[C@@H]1C[C@H]2C(=O)NC3(CC(C)(C)C3)C(=O)N(C)[C@@H](C(CC)CC)C(=O)N(C)[C@H](C(=O)N3CCCC3)CC(=O)N(C)[C@@H](C)C(=O)N[C@@H]([C@@H](C)CC)C(=O)N(C)CC(=O)N(C)[C@H]3C/C=C\CCN(C3=O)[C@@H](Cc3ccc(C)cc3)C(=O)N(C)CC(=O)N[C@@H](CCc3ccc(Cl)c(Cl)c3)C(=O)N2C1 [PP2187]	7.50	–	–	A (a compound having 10 or more and less than 20 is denoted as A)	AA (a compound having 20 or more is denoted as AA)
CCCN(C)C(=O)[C@@H]1CC(=O)N(C)[C@@H](C2CC2)C(=O)N[C@@H]([C@@H](C)CC)C(=O)N(C)CC(=O)N(C)[C@H]2C/C=C\CCN(C2=O)[C@@H](Cc2ccc(C(F)(F)F)cc2)C(=O)N(C)CC(=O)N[C@@H](CCc2cc(F)c(C(F)(F)F)c(F)c2)C(=O)N2C[C@@H](C)C[C@H]2C(=O)NC2(CCC2)C(=O)N(C)[C@@H](C2CCCC2)C(=O)N1C [PP2081]	7.95	–	–	A (a compound having 10 or more and less than 20 is denoted as A)	A (a compound having 10 or more and less than 20 is denoted as A)
CCCN1C(=O)CN(C)C(=O)CN(C)C(=O)[C@H]([C@@H](C)CC)NC(=O)[C@H](CC(C)C)N(C)C(=O)C[C@@H](C(=O)N(C)C)N(C)C(=O)[C@H](C2CCCC2)N(C)C(=O)C2(CCCC2)NC(=O)[C@@H]2CCCN2C(=O)[C@H](CCc2cc(F)c(C(F)(F)F)c(F)c2)NC(=O)CN(C)C(=O)[C@@H]1Cc1ccc(C(F)(F)F)cc1 [PP0788] ([NMeL]I[Sar][Sar][NPrPhe(4-CF3)][Sar][hPhe(3,5-F2-4-CF3)]P[Ac5c][NMeGly(cPent)][NMeD]-NMe2; lactam N-11)	8.15	C (A compound having a KD ratio of 0.1 or more and less than 3 is denoted as C)	B (a compound having 3 or more and less than 10 is denoted as B)	–	–
CCCN1C(=O)CN(C)C(=O)CN(CC)C(=O)[C@H]([C@@H](C)CC)NC(=O)[C@H](CC(C)C)N(C)C(=O)C[C@@H](C(=O)N2CCOCC2)N(C)C(=O)[C@H](C2CCCC2)N(C)C(=O)C2(CCCC2)NC(=O)[C@@H]2CC(C)(C)CN2C(=O)[C@H](CCc2ccc(C(F)(F)F)c(Cl)c2)NC(=O)CN(C)C(=O)[C@@H]1Cc1ccc(C(F)(F)F)cc1 [PP0450] ([NMeL]I[NEtG][Sar][NPrPhe(4-CF3)][Sar][hPhe(3-Cl-4-CF3)][Pro(4,4-Me2)][Ac5c][NMeGly(cPent)][NMeD]-Morpholide; lactam N-11)	8.08	–	–	C (A compound having a KD ratio of 0.1 or more and less than 3 is denoted as C)	B (a compound having 3 or more and less than 10 is denoted as B)
CC[C@H](C)[C@@H]1NC(=O)[C@H](CC(C)C)N(C)C(=O)C[C@@H](C(=O)N2CCOCC2)N(C)C(=O)[C@H](C2CCCC2)N(C)C(=O)C2(CCCC2)NC(=O)[C@@H]2CCCN2C(=O)[C@H](CCc2ccc(C(F)(F)F)c(Cl)c2)NC(=O)CN(C)C(=O)[C@H](Cc2ccc(C(F)(F)F)cc2)N(CC2CC2)C(=O)[C@@H]2CCN2C(=O)[C@H](C)N(C)C1=O [PP0108] ([NMeL]I[NMeA][Aze][X33][Sar][hPhe(3-Cl-4-CF3)]P[Ac5c][NMeGly(cPent)][NMeD]-Morpholide; lactam N-11)	8.05	C (A compound having a KD ratio of 0.1 or more and less than 3 is denoted as C)	C (A compound having a KD ratio of 0.1 or more and less than 3 is denoted as C)	–	–
CCO[C@@H]1C[C@H]2C(=O)NC3(CC(C)(C)C3)C(=O)N(C)[C@@H](C(CC)CC)C(=O)N(C)[C@H](C(=O)N(C)C)CC(=O)N(C)[C@@H](CC3CC3)C(=O)N[C@@H]([C@@H](C)CC)C(=O)N(C)CC(=O)N(C)[C@H]3C/C=C\CCN(C3=O)[C@@H](Cc3ccc(C)cc3)C(=O)N(C)CC(=O)N[C@@H](CCc3ccc(C(F)(F)F)c(OC)c3)C(=O)N2C1 [PP2166]	7.63	–	–	A (a compound having 10 or more and less than 20 is denoted as A)	A (a compound having 10 or more and less than 20 is denoted as A)
CCCN1C(=O)CN(C)C(=O)CN(CC)C(=O)[C@H]([C@@H](C)CC)NC(=O)[C@H](CC(C)C)N(C)C(=O)C[C@@H](C(=O)N2CCOCC2)N(C)C(=O)[C@H](C2CCCC2)N(C)C(=O)C2(CCCC2)NC(=O)CN(C)C(=O)[C@H](CCc2ccc(C(F)(F)F)c(Cl)c2)NC(=O)CN(C)C(=O)[C@@H]1Cc1ccc(C(F)(F)F)cc1 [PP0300] ([NMeL]I[NEtG][Sar][NPrPhe(4-CF3)][Sar][hPhe(3-Cl-4-CF3)][Sar][Ac5c][NMeGly(cPent)][NMeD]-Morpholide; lactam N-11)	7.13	C (A compound having a KD ratio of 0.1 or more and less than 3 is denoted as C)	B (a compound having 3 or more and less than 10 is denoted as B)	–	–
